According to the NIST ThermoML archive (doi:10.1021/acs.jced.7b00106):

Conditions: Hot wire method

FC(F)(F)/C=C/Cl [(E)-1-chloro-3,3,3-trifluoroprop-1-ene]
Conditions | thermal conductivity [W/m/K]
323.1 K, 34268 kPa, Liquid | 0.09193
323.1 K, 66598 kPa, Liquid | 0.1029
323.11 K, 123 kPa, Gas | 0.01239
323.13 K, 141 kPa, Gas | 0.01226
323.13 K, 436 kPa, Liquid | 0.07562
323.13 K, 34301 kPa, Liquid | 0.09204
323.15 K, 9819 kPa, Liquid | 0.08053
323.15 K, 56133 kPa, Liquid | 0.09946
323.17 K, 162 kPa, Gas | 0.01242
323.18 K, 25073 kPa, Liquid | 0.08808
323.2 K, 191 kPa, Gas | 0.01256
323.22 K, 5184 kPa, Liquid | 0.07808
323.24 K, 99 kPa, Gas | 0.01215
323.24 K, 43827 kPa, Liquid | 0.09508
323.25 K, 99 kPa, Gas | 0.01276
323.25 K, 164 kPa, Gas | 0.01258
323.26 K, 123 kPa, Gas | 0.01268
323.26 K, 43810 kPa, Liquid | 0.0946
323.3 K, 34263 kPa, Liquid | 0.09159
323.32 K, 34298 kPa, Liquid | 0.09169
323.33 K, 446 kPa, Liquid | 0.07514
323.39 K, 25067 kPa, Liquid | 0.08782
323.41 K, 123 kPa, Gas | 0.01233
323.45 K, 161 kPa, Gas | 0.01242
323.47 K, 142 kPa, Gas | 0.0127
323.52 K, 66583 kPa, Liquid | 0.1032
323.54 K, 259 kPa, Gas | 0.01261
323.54 K, 66602 kPa, Liquid | 0.103
323.57 K, 16961 kPa, Liquid | 0.08443
323.6 K, 56150 kPa, Liquid | 0.09972
323.64 K, 165 kPa, Gas | 0.01259
323.64 K, 189 kPa, Gas | 0.01262
323.65 K, 123 kPa, Gas | 0.01276
323.66 K, 9815 kPa, Liquid | 0.08057
323.69 K, 99 kPa, Gas | 0.01287
323.72 K, 123 kPa, Gas | 0.01229
323.73 K, 66589 kPa, Liquid | 0.103
323.75 K, 66615 kPa, Liquid | 0.1027
323.76 K, 5178 kPa, Liquid | 0.07818
323.77 K, 160 kPa, Gas | 0.01238
323.77 K, 16953 kPa, Liquid | 0.08413
323.81 K, 56140 kPa, Liquid | 0.09958
323.87 K, 438 kPa, Liquid | 0.07537
323.88 K, 9798 kPa, Liquid | 0.08054
323.92 K, 142 kPa, Gas | 0.01276
323.98 K, 5181 kPa, Liquid | 0.07788
323.99 K, 260 kPa, Gas | 0.01261
324.07 K, 165 kPa, Gas | 0.01273
324.09 K, 123 kPa, Gas | 0.0128
324.11 K, 428 kPa, Liquid | 0.07518
324.12 K, 188 kPa, Gas | 0.01262
324.17 K, 99 kPa, Gas | 0.01287
324.41 K, 142 kPa, Gas | 0.01275
324.45 K, 260 kPa, Gas | 0.01268
324.52 K, 165 kPa, Gas | 0.01271
324.55 K, 123 kPa, Gas | 0.01276
324.61 K, 187 kPa, Gas | 0.01271
324.68 K, 99 kPa, Gas | 0.0129
324.93 K, 141 kPa, Gas | 0.01279
324.96 K, 260 kPa, Gas | 0.01269
324.99 K, 163 kPa, Gas | 0.01274
325.04 K, 123 kPa, Gas | 0.01286
325.13 K, 186 kPa, Gas | 0.01278
325.22 K, 99 kPa, Gas | 0.01286
325.47 K, 141 kPa, Gas | 0.01283
325.5 K, 161 kPa, Gas | 0.01276
325.56 K, 123 kPa, Gas | 0.01283
325.79 K, 99 kPa, Gas | 0.01295
326.04 K, 160 kPa, Gas | 0.01284
326.1 K, 123 kPa, Gas | 0.01295
331.18 K, 333 kPa, Gas | 0.01373
331.42 K, 333 kPa, Gas | 0.01368
331.5 K, 333 kPa, Gas | 0.01298
331.53 K, 115 kPa, Gas | 0.01325
331.54 K, 333 kPa, Gas | 0.01297
331.58 K, 329 kPa, Gas | 0.01333
331.68 K, 333 kPa, Gas | 0.01367
331.75 K, 257 kPa, Gas | 0.01341
331.8 K, 182 kPa, Gas | 0.01323
331.82 K, 332 kPa, Gas | 0.01319
331.83 K, 113 kPa, Gas | 0.01306
331.85 K, 115 kPa, Gas | 0.01325
331.86 K, 333 kPa, Gas | 0.01297
331.89 K, 328 kPa, Gas | 0.01301
331.9 K, 328 kPa, Gas | 0.01382
331.94 K, 333 kPa, Gas | 0.01367
331.97 K, 263 kPa, Gas | 0.01309
332 K, 256 kPa, Gas | 0.01333
332.04 K, 97 kPa, Gas | 0.01346
332.06 K, 181 kPa, Gas | 0.01314
332.08 K, 113 kPa, Gas | 0.01302
332.08 K, 186 kPa, Gas | 0.01344
332.12 K, 331 kPa, Gas | 0.01303
332.14 K, 328 kPa, Gas | 0.01379
332.18 K, 114 kPa, Gas | 0.01353
332.2 K, 328 kPa, Gas | 0.01299
332.25 K, 255 kPa, Gas | 0.01328
332.28 K, 333 kPa, Gas | 0.013
332.3 K, 262 kPa, Gas | 0.01306
332.33 K, 180 kPa, Gas | 0.01309
332.36 K, 113 kPa, Gas | 0.01297
332.37 K, 97 kPa, Gas | 0.01361
332.4 K, 328 kPa, Gas | 0.01373
332.42 K, 185 kPa, Gas | 0.01339
332.52 K, 253 kPa, Gas | 0.01329
332.54 K, 113 kPa, Gas | 0.01346
332.56 K, 97 kPa, Gas | 0.01298
332.56 K, 328 kPa, Gas | 0.01325
332.63 K, 178 kPa, Gas | 0.01301
332.63 K, 333 kPa, Gas | 0.01323
332.64 K, 112 kPa, Gas | 0.01294
332.66 K, 260 kPa, Gas | 0.01314
332.67 K, 328 kPa, Gas | 0.01373
332.71 K, 98 kPa, Gas | 0.01354
332.81 K, 183 kPa, Gas | 0.0135
332.81 K, 252 kPa, Gas | 0.01326
332.84 K, 97 kPa, Gas | 0.01292
332.93 K, 177 kPa, Gas | 0.01297
332.95 K, 113 kPa, Gas | 0.01357
332.95 K, 328 kPa, Gas | 0.0132
332.96 K, 113 kPa, Gas | 0.01287
333.06 K, 258 kPa, Gas | 0.01325
333.08 K, 97 kPa, Gas | 0.01356
333.08 K, 333 kPa, Gas | 0.01308
333.14 K, 97 kPa, Gas | 0.01284
333.22 K, 183 kPa, Gas | 0.01328
333.25 K, 176 kPa, Gas | 0.01293
333.35 K, 328 kPa, Gas | 0.0133
333.38 K, 113 kPa, Gas | 0.01357
333.44 K, 97 kPa, Gas | 0.01284
333.49 K, 257 kPa, Gas | 0.01337
333.5 K, 97 kPa, Gas | 0.01356
333.54 K, 333 kPa, Gas | 0.01313
333.58 K, 176 kPa, Gas | 0.01292
333.66 K, 182 kPa, Gas | 0.01345
333.78 K, 328 kPa, Gas | 0.01326
333.82 K, 113 kPa, Gas | 0.0136
333.93 K, 255 kPa, Gas | 0.01332
333.94 K, 97 kPa, Gas | 0.01368
334.01 K, 333 kPa, Gas | 0.01329
334.14 K, 180 kPa, Gas | 0.01351
334.25 K, 328 kPa, Gas | 0.01327
334.31 K, 112 kPa, Gas | 0.01357
334.41 K, 97 kPa, Gas | 0.01363
334.42 K, 254 kPa, Gas | 0.0134
